These results are taken from patent US8637537B2, “Serine/threonine kinase inhibitors” (Genentech, Inc., priority 2011, dated 2014).

Structures can show the parent of a compound that is named as a salt.

The target of the first experiment is T1, human recombinant GST-PAK1-KD protein (Homo sapiens, UniProt Q13153).
T1 construct: residues #249-545 of human PAK1, UniProtKP/Swiss Q13153; His6 (N); made in house; host or cells: Sf9 insect cells, pAcGP67 baculovirus expression vector
T1 sequence (Q13153 249-545): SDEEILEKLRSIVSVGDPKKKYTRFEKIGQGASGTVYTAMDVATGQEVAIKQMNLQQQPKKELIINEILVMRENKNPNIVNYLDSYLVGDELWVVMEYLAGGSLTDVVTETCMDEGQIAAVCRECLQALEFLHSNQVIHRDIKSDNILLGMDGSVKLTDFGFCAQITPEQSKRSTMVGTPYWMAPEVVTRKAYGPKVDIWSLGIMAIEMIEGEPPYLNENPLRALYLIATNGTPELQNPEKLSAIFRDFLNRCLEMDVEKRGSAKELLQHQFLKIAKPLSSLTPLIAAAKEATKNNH
The experiment in a line: GST-PAK1-KD (kinase domain) biochemical assay, microfluidic mobility shift.
Settings: not given
On to `COc1n[nH]c2cccc(CN(C)c3nccc(Nc4cc(C5CC5)[nH]n4)n3)c12` [II-30, N^4-(5-cyclopropyl-1H-pyrazol-3-yl)-N^2-((3-methoxy-1H-indazol-4-yl)methyl)-N^2-methylpyrimidine-2,4-diamine], for which the Ki was in the range of 0.05 to 0.25 µM.

The same experiment, now with this note: Ki, Table I, PAK1 Ki class.
As to `C[C@@H](Nc1nccc(Nc2cc(C3CC3)[nH]n2)n1)c1ccc2[nH]ccc2c1` [I-60, (R)—N^2-(1-(1H-indol-5-yl)ethyl)-N^4-(5-cyclopropyl-1H-pyrazol-3-yl)pyrimidine-2,4-diamine], the inhibitory constant (Ki) was over 1 µM.
Turning to `Clc1c(CNc2nccc(Nc3cc(C4CC4)[nH]n3)n2)ccc2[nH]cnc12` [I-3, N^2-[(4-Chloro-1H-benzimidazol-5-yl)methyl]-N^4-(5-cyclopropyl-1H-pyrazol-3-yl)pyrimidine-2,4-diamine], the inhibitory constant (Ki) was under 0.05 µM.

Still in this experiment, the particulars now being: Table I, PAK1 Ki class; read-out: Ki.
Consider `C[C@H](c1ccc2[nH]cnc2c1)N(C)c1nccc(Nc2cc(C3CC3)[nH]n2)n1` [I-55, (R)—N^2-(1-(1H-benzo[d]imidazol-5-yl)ethyl)-N^4-(5-cyclopropyl-1H-pyrazol-3-yl)-N^2-methylpyrimidine-2,4-diamine], for which the Ki lay in the range of 0.05 to 0.25 µM.
On the same count and under the same terms, next, `CN(Cc1ccc2[nH]cnc2c1)c1nccc(Nc2cc(C3CC3)[nH]n2)n1` [I-12, N^2-((1H-Benzo[d]imidazol-5-yl)methyl)-N^4-(5-cyclopropyl-1H-pyrazol-3-yl)-N^2-methylpyrimidine-2,4-diamine]: under 0.05 µM; `C[C@H](Nc1ncc(Cl)c(Nc2cc(C3CC3)[nH]n2)n1)c1ccc2[nH]cnc2c1` [I-46, (S)—N^2-(1-(1H-benzo[d]imidazol-5-yl)ethyl)-5-chloro-N^4-(5-cyclopropyl-1H-pyrazol-3-yl)pyrimidine-2,4-diamine]: 0.05 to 0.25 µM; `Fc1ccccc1[C@H]1C[C@@H]1c1cc(Nc2ccnc(NCc3cccc4[nH]ccc34)n2)n[nH]1` (racemic) [I-118, N^2-((1H-indol-4-yl)methyl)-N^4-(5-(trans-2-(2-fluorophenyl)cyclopropyl)-1H-pyrazol-3-yl)pyrimidine-2,4-diamine]: 0.25 to 1 µM.
For the compound `C[C@H](Nc1nccc(Nc2cc([C@@H]3CC3(F)F)[nH]n2)n1)c1ccc2[nH]cnc2c1` [I-61, N^2—((S)-1-(1H-benzo[d]imidazol-5-yl)ethyl)-N^4-(5-((S)-2,2-difluorocyclopropyl)-1H-pyrazol-3-yl)pyrimidine-2,4-diamine], the Ki lay within 0.05 to 0.25 µM.
On the same count and under the same terms, the same measure for `CN(Cc1ccc2[nH]cnc2c1Cl)c1ncc(F)c(Nc2cc(C3CC3)[nH]n2)n1` [I-86, N^2-((4-chloro-1H-benzo[d]imidazol-5-yl)methyl)-N^4-(5-cyclopropyl-1H-pyrazol-3-yl)-5-fluoro-N^2-methylpyrimidine-2,4-diamine]: under 0.05 µM; for `FC1(F)CC(c2cc(Nc3ccnc(NCc4ccc5[nH]cnc5c4Cl)n3)n[nH]2)C1` [I-105, N^2-((4-chloro-1H-benzo[d]imidazol-5-yl)methyl)-N^4-(5-(3,3-difluorocyclobutyl)-1H-pyrazol-3-yl)pyrimidine-2,4-diamine]: under 0.05 µM; for `Cc1cc2[nH]cnc2cc1CNc1nccc(Nc2cc(C3CC3)[nH]n2)n1` [I-30, N^4-(5-Cyclopropyl-1H-pyrazol-3-yl)-N^2-[(6-methyl-1H-benzimidazol-5-yl)methyl]pyrimidine-2,4-diamine]: 0.25 to 1 µM.
`Cc1ccc(CNc2nccc(Nc3cc(C4CC4)[nH]n3)n2)c2cc[nH]c12` [I-52, N^4-(5-Cyclopropyl-1H-pyrazol-3-yl)-N^2-((7-methyl-1H-indol-4-yl)methyl)pyrimidine-2,4-diamine]: the Ki was in the range of 0.05 to 0.25 µM.
Turning to `C[C@H](Nc1nccc(Nc2cc(C3CC3)[nH]n2)n1)c1cccc2[nH]ccc12` [I-98, N^4-(5-cyclopropyl-1H-pyrazol-3-yl)-N^2-[(1S)-1-(1H-indol-4-yl)ethyl]pyrimidine-2,4-diamine], the Ki was under 0.05 µM.
Take `C[C@H](Nc1nccc(Nc2cc([C@H]3C[C@@H]3F)[nH]n2)n1)c1ccc2[nH]ccc2c1` [I-73, N^2—((S)-1-(1H-indol-5-yl)ethyl)-N^4-(5-((1R,2S)-2-fluorocyclopropyl)-1H-pyrazol-3-yl)pyrimidine-2,4-diamine]: the Ki was under 0.05 µM.
In the case of `FC1(F)CC1c1cc(Nc2ccnc(NCc3cccc4[nH]ccc34)n2)n[nH]1` (stereo not shown) [I-82, N2—((1H-indol-4-yl)methyl)-N4-(5-(2,2-difluorocyclopropyl)-1H-pyrazol-3-yl)pyrimidine-2,4-diamine], the Ki is under 0.05 µM.
The same measure, in the same setting: next, `Cc1cc(Nc2cc(C3CC3)[nH]n2)nc(NCc2cc(F)cc3[nH]ccc23)n1` [I-89, N^4-(5-Cyclopropyl-1H-pyrazol-3-yl)-N^2-((6-fluoro-1H-indol-4-yl)methyl)-6-methylpyrimidine-2,4-diamine Formate]: 0.25 to 1 µM; `Fc1cc(CNc2nccc(Nc3cc(C4CC4)[nH]n3)n2)cc2nc[nH]c12` [I-96, N^4-(5-cyclopropyl-1H-pyrazol-3-yl)-N^2-((7-fluoro-1H-benzo[d]imidazol-5-yl)methyl)pyrimidine-2,4-diamine]: 0.05 to 0.25 µM; `CC(C)(Nc1nccc(Nc2cc(C3CC3)[nH]n2)n1)c1ccc2[nH]cnc2c1` [I-17, N^2-(2-(1H-Benzo[d]imidazol-5-yl)propan-2-yl)-N^4-(5-cyclopropyl-1H-pyrazol-3-yl)pyrimidine-2,4-diamine]: 0.05 to 0.25 µM.
With `c1cc(CNc2nccc(Nc3cc(C4CCCO4)[nH]n3)n2)c2cc[nH]c2c1` (stereo not shown) [I-119, N^2-((1H-indol-4-yl)methyl)-N^4-(5-(tetrahydrofuran-2-yl)-1H-pyrazol-3-yl)pyrimidine-2,4-diamine], the Ki was in the range of 0.25 to 1 µM.
`C[C@H](Nc1nccc(Nc2cc(C3CC3(F)F)[nH]n2)n1)c1ccc2[nH]ccc2c1` (mixture of isomers) [I-66, N^2—((S)-1-(1H-indol-5-yl)ethyl)-N^4-(5-(2,2-difluorocyclopropyl)-1H-pyrazol-3-yl)pyrimidine-2,4-diamine]: the Ki was in the range of 0.05 to 0.25 µM.
`C[C@H](Nc1nccc(Nc2cc(C3CCCO3)[nH]n2)n1)c1ccc2[nH]cnc2c1` (stereo partly drawn) [I-44, N^2—((S)-1-(1H-benzo[d]imidazol-5-yl)ethyl)-N^4-(5-(tetrahydrofuran-2-yl)-1H-pyrazol-3-yl)pyrimidine-2,4-diamine]: the Ki fell in the range of 0.05 to 0.25 µM.
On to `C[C@H](Nc1nccc(Nc2cc(C3CC(F)(F)C3)[nH]n2)n1)c1ccc2[nH]ccc2c1` [I-111, (S)—N^2-(1-(1H-indol-5-yl)ethyl)-N^4-(5-(3,3-difluorocyclobutyl)-1H-pyrazol-3-yl)pyrimidine-2,4-diamine], for which the Ki is under 0.05 µM.

The experiment is the same for the next values; noted with them: Table II, PAK1 Ki class; read-out: Ki.
Take `CCN(Cc1cc(F)cc2[nH]ncc12)c1nccc(Nc2cc([C@H](C)C3CC3)[nH]n2)n1` [II-92, (R)-N^4-(5-(1-cyclopropylethyl)-1H-pyrazol-3-yl)-N^2-ethyl-N^2((6-fluoro-1H-indazol-4-yl)methyl)pyrimidine-2,4-diamine]: the Ki was under 0.05 µM.
Same read-out and setting: next, `CN(Cc1cc(Cl)cc2[nH]cnc12)c1nccc(Nc2cc(C3CC3)[nH]n2)n1` [II-14, N^2-((6-Chloro-1H-benzo[d]imidazol-4-yl)methyl)-N^4-(5-cyclopropyl-1H-pyrazol-3-yl)-N^2-methylpyrimidine-2,4-diamine]: under 0.05 µM.
Still for that read-out and setting: next, `CCN(Cc1ccc2[nH]cnc2c1Cl)c1ncc(F)c(Nc2cc([C@@H]3C[C@@H]3F)[nH]n2)n1` [II-111, N^2-((4-chloro-1H-benzo[d]imidazol-5-yl)methyl)-N^2-ethyl-5-fluoro-N^4-(5-((1S,2S)-2-fluorocyclopropyl)-1H-pyrazol-3-yl)pyrimidine-2,4-diamine]: under 0.05 µM; `C[C@H](CN(Cc1cc(F)cc2[nH]ncc12)c1nccc(Nc2cc(C3CC3)[nH]n2)n1)N(C)C` [II-62, (R)-N^4-(5-cyclopropyl-1H-pyrazol-3-yl)-N^2-(2-(dimethylamino)propyl)-N^2-((6-fluoro-1H-indazol-4-yl)methyl)pyrimidine-2,4-diamine]: under 0.05 µM.
As to `CN(Cc1ccc2[nH]cnc2c1Cl)c1nccc(Nc2cc(OCc3ccccn3)[nH]n2)n1` [II-36], the inhibition constant (Ki) lay within 0.05 to 0.25 µM.
For the compound `COc1c(CNc2nccc(Nc3cc(C4CC4)[nH]n3)n2)ccc2[nH]cnc12` [II-1, N^4-(5-Cyclopropyl-1H-pyrazol-3-yl)-N^2-[(4-methoxy-1H-benzimidazol-5-yl)methyl]-pyrimidine-2,4-diamine], the Ki is under 0.05 µM.
`CN(Cc1ccc2[nH]cnc2c1Cl)c1nccc(Nc2cc([C@H]3CC3(F)F)[nH]n2)n1` [II-54, (R)-N^2-((4-chloro-1H-benzo[d]imidazol-5-yl)methyl)-N^4-(5-(2,2-difluorocyclopropyl)-1H-pyrazol-3-yl)-N^2-methylpyrimidine-2,4-diamine]: the Ki was under 0.05 µM.
On to `Cc1c(CNc2ncc(F)c(Nc3cc(C4CC4)[nH]n3)n2)ccc2[nH]cnc12` [II-8, N^4-(5-Cyclopropyl-1H-pyrazol-3-yl)-5-fluoro-N^2-[(4-methyl-1H-benzimidazol-5-yl)methyl]pyrimidine-2,4-diamine], for which the inhibitory constant (Ki) is 0.05 to 0.25 µM.
For `c1cc(Nc2cc(C3CC3)[nH]n2)nc(N(Cc2ccc3[nH]cnc3c2)C2CC2)n1` [II-78, N^2-((1H-benzo[d]imidazol-5-yl)methyl)-N^2-cyclopropyl-N^4-(5-cyclopropyl-1H-pyrazol-3-yl)pyrimidine-2,4-diamine], the Ki is under 0.05 µM.
On the same count and under the same terms, the same measure for `Fc1cc(CNc2ncc(F)c(Nc3cc([C@@H]4CC4(F)F)[nH]n3)n2)c2cn[nH]c2c1` [II-101, (S)-N^4-(5-(2,2-difluorocyclopropyl)-1H-pyrazol-3-yl)-5-fluoro-N^2-((6-fluoro-1H-indazol-4-yl)methyl)pyrimidine-2,4-diamine]: 0.05 to 0.25 µM; for `Fc1cnc(N(Cc2ccc3[nH]cnc3c2)C2CCCC2)nc1Nc1cc(C2CC2)[nH]n1` [II-108, N^2-((1H-benzo[d]imidazol-5-yl)methyl)-N^2-cyclopentyl-N^4-(5-cyclopropyl-1H-pyrazol-3-yl)-5-fluoropyrimidine-2,4-diamine]: 0.05 to 0.25 µM; for `Clc1c[nH]c2cccc(CNc3nccc(Nc4cc(C5CC5)[nH]n4)n3)c12` [II-112, N^2-((3-chloro-1H--indol-4-yl)methyl)-N^4-(5-cyclopropyl-1H-pyrazol-3-yl)pyrimidine-2,4-diamine]: under 0.05 µM.
